Experimental data as given in patent EP0104300A1, “Diazolyl alkanoles, process for their preparation and their use as antimycotic agents” (BAYER AG, priority 1982, dated 1984).

Test system: Candida-Zellen
Test: Antimycotic in-vivo efficacy (oral) in mouse candidosis
Design: species or system Mäuse vom Typ SPF-CF1; key: +++++: sehr gute Wirkung = 90 % Ueberlebende am 6.Tag p.i.; ++++: gute Wirkung = 80 % Ueberlebende am 6 Tag p.i.; +++: Wirkung = 60 % Ueberlebende am 6. Tag p.i.; ++: schwache Wirkung = 40 % Ueberlebende am 6.Tag p.i.; +: Spur Wirkung =; k.W.: keine Wirkung
Details: mice infected i.v. with 1 - 2 x 10^6 Candida cells; oral treatment with 50 - 100 mg/kg each, 1 h before and 7 h after infection; survivors on day 6 p.i.
Experimental: Antimykotische in-vivo-Wirksamkeit (oral) bei Mäusecandidose Versuchsbeschreibun:
Mäuse vom Typ SPF-CF1 wurden intravenös mit 1 - 2 x 10^6 logarithmisch wachsenden Candida-Zellen, die in physiologischer Kochsalzlösung suspendiert werden, infiziert. Eine Stunde vor und sieben Stunden nach der Infektion werden die Tiere mit jeweils 50 - 100 mg/kg Körpergewicht der Präparate oral behandelt.
Unbehandelte Tiere starben 3 bis 6 Tage post infektionem. Die Ueberlebensrate am 6.Tag post infektionem betrug bei unbehandelten Kontrolltieren etwa 5 %. In diesem Test zeigten z.B. die erfindungsgemäßen Verbindungen eine bessere Wirkung als die aus dem Stand der Technik bekannten Verbindungen 1 und 3.
+++++ = sehr gute Wirkung = 90 % Ueberlebende am 6.Tag p.i. ++++ = gute Wirkung = 80 % Ueberlebende am 6 Tag p.i. +++ = Wirkung = 60 % Ueberlebende am 6. Tag p.i. ++ = schwache Wirkung = 40 % Ueberlebende am 6.Tag p.i. + = Spur Wirkung = k.W. = keine Wirkung

Question: OC(Cc1ccc(Cl)cc1Cl)(Cn1ccnc1)c1ccc(-c2ccccc2)cc1 (centres unmarked) [(A), 2-(4-Biphenylyl)-1-(2,4-dichlorphenyl)-3-(imidazoL-1-yL)-2-propanoL] was tested. Which Wirkung did it give?
Answer: k.W.

Question: How did the Wirkung turn out when CC(C)(C)C(O)(COc1ccc(Cl)cc1)Cn1ccnc1 (centres unmarked) [(B), 2-(4-Chlorphenoxymethyl)-3,3-dimethyl-1-(imidazol-1-yl)-butan-2-ol] was run?
Answer: k.W.

Question: For Cc1ccccc1OCC(O)(Cn1ccnc1)C(C)(C)C (centres unmarked) [(C)], which Wirkung is on record?
Answer: k.W.

Question: OC(C#Cc1ccc(Cl)cc1)(Cn1cncn1)Cn1cncn1 [Beispiel 3] was tested. Which Wirkung did it give?
Answer: +++++ (sehr gute Wirkung = 90 % Ueberlebende am 6.Tag p.i.)

Question: How did the Wirkung turn out when OC(C#Cc1ccccc1)(Cn1cncn1)Cn1cncn1 [Beispiel 1, 3-Hydroxy-1-phenyL-4-(1,2,4-triazol-1-yl)-3-(1,2,4-triazol-1-yl-methyl)-1-butin] was run?
Answer: +++ (Wirkung = 60 % Ueberlebende am 6. Tag p.i.)
